Like-named read-outs stand apart in the source and are kept apart here.

In test [1] the test system is recombinant EBOV (Mayinga variant). In kind it is cell-based, Ebola virus. Particulars: read-out: Approximate EC50 against recombinant reporter EBOV variants.
In test [2] the test system is RAVV (Ravn variant). It is filed as cell-based, Ravn virus.
Test [3] concerns NiV (Malaysian genotype). Particulars: cited from earlier work.
Test [4] concerns HeV. The settings on record: cited from earlier work.

A word on the EC50: it is the concentration needed to bring the measured effect to its halfway point. With “2′-monofluoro-4′-azidocytidine [2′F-4′N3-C]”, in test [1], the EC50 lay within 3000 to 8000 nM. Moreover, the “Reduction of infectious RAVV titers” value in test [2] is “roughly 1.5 orders of magnitude”.

`[N-]=[N+]=N[C@]1(CO)O[C@@H](n2ccc(N)nc2=O)[C@H](O)[C@@H]1O` [R1479, 4′-azidocytidine]: the EC50 is 1500 nM in test [3], around 2000 nM in test [1] and 2400 nM in test [4]. The “Reduction of infectious RAVV titers” value in test [2] (at 50 μM) was “over 4 orders of magnitude”.

The record behind these values is publication PMC6066796 (Antiviral Research, 2018).
